Assay results reported in ChEMBL document CHEMBL3885861, “Open TG-GATES”.

Species: Rattus norvegicus
Test: Open TG-GATES - Regimen: Daily Repeat
Format: toxicity, organism-based, Sprague-Dawley
Parameters: regimen Daily Repeat, gender Male, age 6 weeks
Settings: in vivo, po, 30 mg/kg, route gavage, dose level Middle; for APTT / Bas / Eos / Fbg / Hb / Ht / Lym / MCH / MCHC / MCV / Mono / Neu / PT / Plat / RBC / Ret / WBC: tissue Blood; for KIDNEY_L / KIDNEY_R / KIDNEY_TOTAL: tissue Kidney; for LIVER: tissue Liver; for A/G / ALP / ALT / AST / BUN / CRE / Ca / Cl / DBIL / GLC / IP / K / LDH / Na / PL / RALB / TBIL / TC / TG / TP / gamma-GTP: tissue Plasma

CN(C)CCN(Cc1cccs1)c1ccccn1 showed a TERMINAL_BW (72 h, time 3 day) of 210.2 g, an APTT (72 h, time 3 day) of 20.9 s and a Bas (72 h, time 3 day) of 0%. It also gave an Eos (72 h, time 3 day) of 0.6%, a Fbg (72 h, time 3 day) of 325.4 mg/dL and a Hb (72 h, time 3 day) of 13.2 g/dL. For the same molecule, the Ht (72 h, time 3 day) was 38.8%, the Lym (72 h, time 3 day) was 80% and the MCH (72 h, time 3 day) was 21.7 pg. For the same molecule, the MCHC (72 h, time 3 day) was 34%, the MCV (72 h, time 3 day) was 63.8 fL and the Mono (72 h, time 3 day) was 2%. The Neu (72 h, time 3 day) was 16.4%, the PT (72 h, time 3 day) was 15.9 s and the Plat (72 h, time 3 day) was 116.7 x10_4/uL. The RBC (72 h, time 3 day) was 609 x10_4/ul, the Ret (72 h, time 3 day) was 6.1% and the WBC (72 h, time 3 day) was 94.3 x10_2/uL. The KIDNEY_L (72 h, time 3 day) was 1 g, the KIDNEY_R (72 h, time 3 day) was 1 g and the KIDNEY_TOTAL (72 h, time 3 day) was 2 g. The LIVER (72 h, time 3 day) was 10.2 g, the A/G (72 h, time 3 day) was 1.2 and the ALP (72 h, time 3 day) was 1737.4 IU/L. For the same molecule, the ALT (72 h, time 3 day) was 45.2 IU/L, the AST (72 h, time 3 day) was 75.8 IU/L and the BUN (72 h, time 3 day) was 15 mg/dL. It also gave a CRE (72 h, time 3 day) of 0.1 mg/dL, a Ca (72 h, time 3 day) of 11 mg/dL and a Cl (72 h, time 3 day) of 106.2 meq/L. The DBIL (72 h, time 3 day) was 0 mg/dL, the GLC (72 h, time 3 day) was 175.4 mg/dL and the IP (72 h, time 3 day) was 7.7 mg/dL. It also gave a K (72 h, time 3 day) of 4.3 meq/L, an LDH (72 h, time 3 day) of 224.4 IU/L and a Na (72 h, time 3 day) of 142 meq/L. It also gave a PL (72 h, time 3 day) of 140.8 mg/dL, an RALB (72 h, time 3 day) of 2.9 g/dL and a TBIL (72 h, time 3 day) of 0.012 mg/dL. It also gave a TC (72 h, time 3 day) of 72.6 mg/dL, a TG (72 h, time 3 day) of 82 mg/dL and a TP (72 h, time 3 day) of 5.4 g/dL. It also gave a gamma-GTP (72 h, time 3 day) of 1.2 IU/L, a TERMINAL_BW ([…], time 7 day) of 254.5 g and a TERMINAL_BW ([…], time 14 day) of 275 g. It also gave a TERMINAL_BW ([…], time 28 day) of 322.8 g, an APTT ([…], time 7 day) of 20.7 s and a Bas ([…], time 7 day) of 0%. For the same molecule, the Eos ([…], time 7 day) was 0.8%, the Fbg ([…], time 7 day) was 304.2 mg/dL and the Hb ([…], time 7 day) was 13.2 g/dL. It also gave a Ht ([…], time 7 day) of 39.1%, a Lym ([…], time 7 day) of 78.6% and an MCH ([…], time 7 day) of 21.4 pg. The MCHC ([…], time 7 day) was 33.7%, the MCV ([…], time 7 day) was 63.5 fL and the Mono ([…], time 7 day) was 1.6%. For the same molecule, the Neu ([…], time 7 day) was 18%, the PT ([…], time 7 day) was 15.9 s and the Plat ([…], time 7 day) was 120.9 x10_4/uL. It also gave an RBC ([…], time 7 day) of 617 x10_4/ul, a Ret ([…], time 7 day) of 6.3% and a WBC ([…], time 7 day) of 124 x10_2/uL. For the same molecule, the APTT ([…], time 14 day) was 21.4 s, the Bas ([…], time 14 day) was 0% and the Eos ([…], time 14 day) was 1%. For the same molecule, the Fbg ([…], time 14 day) was 309.6 mg/dL, the Hb ([…], time 14 day) was 14.2 g/dL and the Ht ([…], time 14 day) was 41.2%. The Lym ([…], time 14 day) was 77.8%, the MCH ([…], time 14 day) was 20.5 pg and the MCHC ([…], time 14 day) was 34.4%. For the same molecule, the MCV ([…], time 14 day) was 59.6 fL, the Mono ([…], time 14 day) was 2.4% and the Neu ([…], time 14 day) was 18.6%. It also gave a PT ([…], time 14 day) of 16.2 s, a Plat ([…], time 14 day) of 108.7 x10_4/uL and an RBC ([…], time 14 day) of 691.6 x10_4/ul. It also gave a Ret ([…], time 14 day) of 3.9%, a WBC ([…], time 14 day) of 110.7 x10_2/uL and an APTT ([…], time 28 day) of 20.7 s. It also gave a Bas ([…], time 28 day) of 0%, an Eos ([…], time 28 day) of 1.4% and a Fbg ([…], time 28 day) of 282 mg/dL. For the same molecule, the Hb ([…], time 28 day) was 14.6 g/dL, the Ht ([…], time 28 day) was 42.2% and the Lym ([…], time 28 day) was 74.2%. The MCH ([…], time 28 day) was 19.2 pg, the MCHC ([…], time 28 day) was 34.5% and the MCV ([…], time 28 day) was 55.5 fL. It also gave a Mono ([…], time 28 day) of 2.6%, a Neu ([…], time 28 day) of 21.4% and a PT ([…], time 28 day) of 16.1 s. For the same molecule, the Plat ([…], time 28 day) was 106.9 x10_4/uL, the RBC ([…], time 28 day) was 760.6 x10_4/ul and the Ret ([…], time 28 day) was 2.7%. The WBC ([…], time 28 day) was 115.8 x10_2/uL, the KIDNEY_L ([…], time 7 day) was 1.1 g and the KIDNEY_R ([…], time 7 day) was 1.1 g. It also gave a KIDNEY_TOTAL ([…], time 7 day) of 2.2 g, a KIDNEY_L ([…], time 14 day) of 1.1 g and a KIDNEY_R ([…], time 14 day) of 1.2 g. The KIDNEY_TOTAL ([…], time 14 day) was 2.3 g, the KIDNEY_L ([…], time 28 day) was 1.3 g and the KIDNEY_R ([…], time 28 day) was 1.3 g. For the same molecule, the KIDNEY_TOTAL ([…], time 28 day) was 2.5 g, the LIVER ([…], time 7 day) was 11.7 g and the LIVER ([…], time 14 day) was 11.9 g. The LIVER ([…], time 28 day) was 13.7 g, the A/G ([…], time 7 day) was 1.1 and the ALP ([…], time 7 day) was 1578.6 IU/L. It also gave an ALT ([…], time 7 day) of 40.4 IU/L, an AST ([…], time 7 day) of 69.2 IU/L and a BUN ([…], time 7 day) of 17.6 mg/dL. The CRE ([…], time 7 day) was 0.2 mg/dL, the Ca ([…], time 7 day) was 10.7 mg/dL and the Cl ([…], time 7 day) was 107 meq/L. The DBIL ([…], time 7 day) was 0 mg/dL, the GLC ([…], time 7 day) was 170.4 mg/dL and the IP ([…], time 7 day) was 7 mg/dL. The K ([…], time 7 day) was 4.3 meq/L, the LDH ([…], time 7 day) was 132.4 IU/L and the Na ([…], time 7 day) was 144.4 meq/L. It also gave a PL ([…], time 7 day) of 134.4 mg/dL, an RALB ([…], time 7 day) of 2.9 g/dL and a TBIL ([…], time 7 day) of 0.012 mg/dL. It also gave a TC ([…], time 7 day) of 71.4 mg/dL, a TG ([…], time 7 day) of 64.8 mg/dL and a TP ([…], time 7 day) of 5.4 g/dL. The gamma-GTP ([…], time 7 day) was 1.8 IU/L, the A/G ([…], time 14 day) was 1.1 and the ALP ([…], time 14 day) was 1753 IU/L. The ALT ([…], time 14 day) was 54.4 IU/L, the AST ([…], time 14 day) was 98.2 IU/L and the BUN ([…], time 14 day) was 18.8 mg/dL. It also gave a CRE ([…], time 14 day) of 0.2 mg/dL, a Ca ([…], time 14 day) of 10.3 mg/dL and a Cl ([…], time 14 day) of 107.8 meq/L. It also gave a DBIL ([…], time 14 day) of 0.008 mg/dL, a GLC ([…], time 14 day) of 166.8 mg/dL and an IP ([…], time 14 day) of 6.8 mg/dL. For the same molecule, the K ([…], time 14 day) was 4.1 meq/L, the LDH ([…], time 14 day) was 177.4 IU/L and the Na ([…], time 14 day) was 143.8 meq/L. The PL ([…], time 14 day) was 131.8 mg/dL, the RALB ([…], time 14 day) was 2.9 g/dL and the TBIL ([…], time 14 day) was 0.026 mg/dL. The TC ([…], time 14 day) was 70.2 mg/dL, the TG ([…], time 14 day) was 56 mg/dL and the TP ([…], time 14 day) was 5.5 g/dL. The gamma-GTP ([…], time 14 day) was 2 IU/L, the A/G ([…], time 28 day) was 1.1 and the ALP ([…], time 28 day) was 1511.8 IU/L. It also gave an ALT ([…], time 28 day) of 74.6 IU/L, an AST ([…], time 28 day) of 129.2 IU/L and a BUN ([…], time 28 day) of 17.6 mg/dL. The CRE ([…], time 28 day) was 0.2 mg/dL, the Ca ([…], time 28 day) was 10.3 mg/dL and the Cl ([…], time 28 day) was 107 meq/L. The DBIL ([…], time 28 day) was 0.008 mg/dL, the GLC ([…], time 28 day) was 169 mg/dL and the IP ([…], time 28 day) was 6.2 mg/dL. It also gave a K ([…], time 28 day) of 4.2 meq/L, an LDH ([…], time 28 day) of 182.2 IU/L and a Na ([…], time 28 day) of 141.8 meq/L. It also gave a PL ([…], time 28 day) of 140.4 mg/dL, an RALB ([…], time 28 day) of 3 g/dL and a TBIL ([…], time 28 day) of 0.022 mg/dL. It also gave a TC ([…], time 28 day) of 80 mg/dL, a TG ([…], time 28 day) of 39.4 mg/dL and a TP ([…], time 28 day) of 5.6 g/dL. It also gave a gamma-GTP ([…], time 28 day) of 2.8 IU/L.
